Molecules are shown by their SMILES.

Experiment in all cases: SPR (Biacore T200), multicycle kinetics, global […] Langmuir fit
Format in all cases: binding
For orientation: SPR reads the build-up and loss of mass on a sensor chip optically.

For experiment [1], the target named is T1, BLM (Homo sapiens, UniProt P54132, K38R).
T1 construct: recombinant, pET28a-sumo in E. coli BL21(DE3); amine-coupled to CM5 chip

In experiment [2] the target is T2, BLM (Homo sapiens, UniProt P54132).
T2 construct: recombinant, pET28a-sumo in E. coli BL21(DE3); amine-coupled to CM5 chip
T2 sequence (P54132 whole entry): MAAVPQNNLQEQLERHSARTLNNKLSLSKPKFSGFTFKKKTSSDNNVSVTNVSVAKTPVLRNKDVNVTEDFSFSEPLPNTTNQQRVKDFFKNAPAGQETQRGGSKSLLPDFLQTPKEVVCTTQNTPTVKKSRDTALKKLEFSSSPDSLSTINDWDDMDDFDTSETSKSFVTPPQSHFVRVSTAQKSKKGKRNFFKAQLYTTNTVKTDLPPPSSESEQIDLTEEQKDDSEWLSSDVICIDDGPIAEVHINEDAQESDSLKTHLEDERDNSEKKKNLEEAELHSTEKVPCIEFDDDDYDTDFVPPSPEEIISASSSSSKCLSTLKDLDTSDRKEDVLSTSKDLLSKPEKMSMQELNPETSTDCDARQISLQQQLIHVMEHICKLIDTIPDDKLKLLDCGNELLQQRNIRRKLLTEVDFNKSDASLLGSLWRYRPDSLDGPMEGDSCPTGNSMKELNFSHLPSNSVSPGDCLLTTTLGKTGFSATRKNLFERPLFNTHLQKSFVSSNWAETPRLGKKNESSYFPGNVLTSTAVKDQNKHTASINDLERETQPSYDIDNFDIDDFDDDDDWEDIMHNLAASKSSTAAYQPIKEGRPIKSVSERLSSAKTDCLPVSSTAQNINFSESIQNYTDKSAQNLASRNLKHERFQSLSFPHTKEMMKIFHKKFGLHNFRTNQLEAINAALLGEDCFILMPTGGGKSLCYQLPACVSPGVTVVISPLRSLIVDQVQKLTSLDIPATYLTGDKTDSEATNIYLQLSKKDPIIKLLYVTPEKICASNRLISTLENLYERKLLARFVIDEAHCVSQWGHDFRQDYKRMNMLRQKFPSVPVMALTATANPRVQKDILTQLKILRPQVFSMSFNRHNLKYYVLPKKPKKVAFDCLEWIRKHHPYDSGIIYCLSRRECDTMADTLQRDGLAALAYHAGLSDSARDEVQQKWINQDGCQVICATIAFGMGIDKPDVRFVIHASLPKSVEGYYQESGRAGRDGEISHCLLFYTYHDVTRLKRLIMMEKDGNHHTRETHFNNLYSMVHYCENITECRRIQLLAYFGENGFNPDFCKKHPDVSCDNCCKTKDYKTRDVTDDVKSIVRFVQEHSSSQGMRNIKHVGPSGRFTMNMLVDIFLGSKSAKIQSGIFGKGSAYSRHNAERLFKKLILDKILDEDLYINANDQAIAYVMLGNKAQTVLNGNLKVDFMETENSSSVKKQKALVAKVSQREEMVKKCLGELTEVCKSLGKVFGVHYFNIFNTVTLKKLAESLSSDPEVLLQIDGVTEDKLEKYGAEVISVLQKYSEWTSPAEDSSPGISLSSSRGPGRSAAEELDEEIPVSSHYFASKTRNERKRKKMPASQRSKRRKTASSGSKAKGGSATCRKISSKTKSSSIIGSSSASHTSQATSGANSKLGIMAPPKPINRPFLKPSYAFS

Experiment [3] deals with T3, BLM (Homo sapiens, UniProt P54132, K31R).
T3 construct: recombinant, pET28a-sumo in E. coli BL21(DE3); amine-coupled to CM5 chip
T3 sequence (P54132 whole entry K31R): as the sequence (P54132 whole entry) above, with K31R counted along it

T1 sequence (P54132 whole entry K38R): as the sequence (P54132 whole entry) above, with K38R counted along it

With `CCc1c2c(nc3ccc(OC(=O)N4CCC(N5CCCCC5)CC4)cc13)-c1cc3c(c(=O)n1C2)COC(=O)[C@]3(O)CC` [irinotecan], the Kd at BLM [1] came to 911 nM; at BLM [2], 251 nM; at BLM [3], 776 nM.

Usually Kd stands for the equilibrium constant for the complex coming apart.

The values are drawn from publication PMC12241633, “Irinotecan alleviates chemoresistance to anthracyclines through the inhibition of AARS1-mediated BLM lactylation and homologous recombination repair” (Signal Transduction and Targeted Therapy, 2025).
